# Laboratory results from patent US20090023200A1, “PARTICLE FOR DETECTING ENZYME ACTIVITY, METHOD FOR DETECTING THE ENZYME ACTIVITY AND ENZYME ACTIVITY DETECTION DEVICE BY THE USE THEREOF” (priority 2005, published 2009).
# Square brackets hold non-standard residues; d marks the D form. Ends that are not written are not given here. * marks the point of attachment. FITC = O=C1OC2(c3ccc(O)cc3Oc3cc(O)ccc32)c2ccc(NC(=S)*)cc21; Dnp = O=[N+]([O-])c1ccc(*)c([N+](=O)[O-])c1; βAla = NCCC(=O)O
# Experiments:
# Format in all cases: biochemical
# trypsin [1] = assay: Trypsin cleavage of particles for detecting enzyme activity, fluorescence change (Example 2); settings: trypsin 100 units, 1 mg particle, difference 60 minutes after adding sample solution vs before; excitation 485 nm, fluorescence 535 nm
# Protocol: To each 1 mg of the particle for detecting the enzyme activity of the samples 9 to 21, 190 μL of 20 mM Tris-HCl buffer (pH 8.0, 100 mM NaCl, 50 mM CaCl2) containing 0.01% Tween 20 was added, to which […] of trypsin aqueous solution (100 units) as the sample solution was added. Every measurement time, 10 μL of the sample was taken and 190 μL of the buffer was added, the mixture was transferred to the 96-well plate, and fluorescence values were measured (measurement time: 0.1 seconds) using Wallac 1420 ARVO sx plate reader manufactured by PerkinElmer. The changed amount (difference between the fluorescence value 60 minutes after adding the sample solution and the fluorescence value before adding the sample solution) of the fluorescence value 60 minutes after adding the sample solution is shown in the column on the right in Table 2 (excitation wavelength: 485 nm, fluorescence wavelength: 535 nm).
# elastase = assay: Elastase cleavage of particles, fluorescence change (Example 3); settings: for Fluorescence value Elastase (changed amount): elastase 10 units, 1 mg particle, difference 60 minutes after adding sample solution vs before, excitation 485 nm, fluorescence 535 nm
# Protocol: (§1) To each 1 mg of the particle for detecting the enzyme activity of the samples 22 to 25, 190 μL of 20 mM Tris-HCl buffer (pH 8.0, 100 mM NaCl, 50 mM CaCl2) containing 0.01% Tween 20 was added, to which 10 μL of elastase aqueous solution (10 units), 10 μL of trypsin aqueous solution (10 units) and 10 μL of subtilisin aqueous solution (10 units) as the sample solution was added. Every measurement time, 10 μL of the sample was taken and 190 μL of the buffer was added, the mixture was transferred to the 96-well plate, and fluorescence values were measured (measurement time: 0.1 seconds) using Wallac 1420 ARVO sx plate reader manufactured by PerkinElmer. The changed amount (difference between the fluorescence value 60 minutes after adding the sample solution and the fluorescence value before adding the sample solution) of the fluorescence value […] the sample solution is shown in the column on the right in Table 3 (excitation wavelength: 485 nm, fluorescence wavelength: 535 nm).
# trypsin [2] = assay: Trypsin cleavage of particles, fluorescence change (Example 3); settings: for Fluorescence value Trypsin (changed amount): trypsin 10 units, 1 mg particle, difference 60 minutes after adding sample solution vs before, excitation 485 nm, fluorescence 535 nm
# Protocol: as §1
# subtilisin [3] = assay: Subtilisin cleavage of particles, fluorescence change (Example 3); settings: subtilisin 10 units, 1 mg particle, difference 60 minutes after adding sample solution vs before; excitation 485 nm, fluorescence 535 nm
# Protocol: as §1
# subtilisin [4] = assay: Subtilisin cleavage of particles for detecting enzyme activity, fluorescence change (Example 1); settings: for Fluorescence value (changed amount): subtilisin 10 units, 1 mg particle, difference 20 minutes after adding sample solution vs before, excitation 485 nm, fluorescence 535 nm
# Protocol: To each 1 mg of the particle for detecting the enzyme activity of the samples 1 to 8, 190 μL of 20 mM Tris-HCl buffer (pH 8.0, 100 mM NaCl, 50 mM CaCl2) containing 0.01% Tween 20 was added, to which 10 μL of subtilisin aqueous solution (10 units) as a sample solution was added. Every measurement time, 10 μL of the sample was taken and 190 μL of the buffer was added, the mixture was transferred to a 96-well plate, and fluorescence values were measured (measurement time: 0.1 seconds) using Wallac 1420 ARVO sx plate reader manufactured by PerkinElmer. A changed amount (difference between the fluorescence value 20 minutes after adding the sample solution and the fluorescence value before adding the sample solution) of the fluorescence value 20 minutes after adding the sample solution is shown in the column on the right in Table 1 (excitation wavelength: 485 nm, fluorescence wavelength: 535 nm).
substance,measurement,setting,value
"Sample 18: PEGA resin particle bearing FITC-β-Ala-Thr-Arg-Val-Lys, Dnp quencher on lysine ({FITC}-[βAla]TRVK(Dnp); also: attached to PEGA resin particle)",Fluorescence value (changed amount),trypsin [1],9
"Sample 23: PEGA resin particle bearing FITC-β-Ala-Ala-Pro-Ala-Lys, Dnp quencher on lysine ({FITC}-[βAla]APAK(Dnp); also: attached to PEGA resin particle)",fluorescence change by elastase activity relative to that by subtilisin activity,"elastase; Table 3 values, same particle",about 2 times
same,Fluorescence value Elastase (changed amount),elastase,582
same,Fluorescence value Trypsin (changed amount),trypsin [2],13
same,Fluorescence value Subtilisin (changed amount),subtilisin [3],291
"Sample 11: PEGA resin particle bearing FITC-β-Ala-Pro-Arg-Gly-Lys, Dnp quencher on lysine ({FITC}-[βAla]PRGK(Dnp); also: attached to PEGA resin particle)",Fluorescence value (changed amount),trypsin [1],51
"Sample 13: PEGA resin particle bearing FITC-β-Ala-Ser-Ala-Arg-Lys, Dnp quencher on lysine ({FITC}-[βAla]SARK(Dnp); also: attached to PEGA resin particle)",Fluorescence value (changed amount),trypsin [1],24
"Sample 21: PEGA resin particle bearing FITC-β-Ala-Pro-Phe-Arg-Lys, Dnp quencher on lysine ({FITC}-[βAla]PFRK(Dnp); also: attached to PEGA resin particle)",Fluorescence value (changed amount),trypsin [1],3
"Sample 25: PEGA resin particle bearing FITC-β-Ala-Ala-Pro-Leu-Lys, Dnp quencher on lysine ({FITC}-[βAla]APLK(Dnp); also: attached to PEGA resin particle)",Fluorescence value Elastase (changed amount),elastase,134
same,Fluorescence value Trypsin (changed amount),trypsin [2],11
same,Fluorescence value Subtilisin (changed amount),subtilisin [3],428
"Sample 17: PEGA resin particle bearing FITC-β-Ala-Pro-Arg-Leu-Lys, Dnp quencher on lysine ({FITC}-[βAla]PRLK(Dnp); also: attached to PEGA resin particle)",Fluorescence value (changed amount),trypsin [1],10
"Sample 1: PEGA resin particle bearing FITC-β-Ala-Pro-Leu-Gly-Lys, Dnp quencher on lysine ({FITC}-[βAla]PLGK(Dnp); also: attached to PEGA resin particle)",Fluorescence value (changed amount),subtilisin [4],14.8
same,"difference in the changed amount of the fluorescence values, sample 1 (highest activity) vs sample 8 (lowest activity)","subtilisin [4]; subtilisin, 20 minutes",≥ 10 times
"Sample 16: PEGA resin particle bearing FITC-β-Ala-Gly-Arg-Arg-Lys, Dnp quencher on lysine ({FITC}-[βAla]GRRK(Dnp); also: attached to PEGA resin particle)",Fluorescence value (changed amount),trypsin [1],14
"Sample 20: PEGA resin particle bearing FITC-β-Ala-His-Leu-Lys-Lys, Dnp quencher on lysine ({FITC}-[βAla]HLKK(Dnp); also: attached to PEGA resin particle)",Fluorescence value (changed amount),trypsin [1],7
"Sample 14: PEGA resin particle bearing FITC-β-Ala-Asn-Pro-Arg-Lys, Dnp quencher on lysine ({FITC}-[βAla]NPRK(Dnp); also: attached to PEGA resin particle)",Fluorescence value (changed amount),trypsin [1],18
"Sample 15: PEGA resin particle bearing FITC-β-Ala-Gly-Lys-Arg-Lys, Dnp quencher on lysine ({FITC}-[βAla]GKRK(Dnp); also: attached to PEGA resin particle)",Fluorescence value (changed amount),trypsin [1],18
"Sample 22: PEGA resin particle bearing FITC-β-Ala-Leu-Leu-Glu-Lys, Dnp quencher on lysine ({FITC}-[βAla]LLEK(Dnp); also: attached to PEGA resin particle)",Fluorescence value Elastase (changed amount),elastase,38
same,fluorescence change by trypsin activity relative to that by subtilisin activity,"trypsin [2]; Table 3 values, same particle",about 1/240
same,Fluorescence value Trypsin (changed amount),trypsin [2],2
same,Fluorescence value Subtilisin (changed amount),subtilisin [3],481
"Sample 12: PEGA resin particle bearing FITC-β-Ala-His-Glu-Lys-Lys, Dnp quencher on lysine ({FITC}-[βAla]HEKK(Dnp); also: attached to PEGA resin particle)",Fluorescence value (changed amount),trypsin [1],45
"Sample 2: PEGA resin particle bearing FITC-β-Ala-Ala-Pro-Ala-Lys, Dnp quencher on lysine ({FITC}-[βAla]APAK(Dnp); also: attached to PEGA resin particle)",Fluorescence value (changed amount),subtilisin [4],7.9
"Sample 3: PEGA resin particle bearing FITC-β-Ala-Ala-Pro-Val-Lys, Dnp quencher on lysine ({FITC}-[βAla]APVK(Dnp); also: attached to PEGA resin particle)",Fluorescence value (changed amount),subtilisin [4],1.2
"Sample 19: PEGA resin particle bearing FITC-β-Ala-Phe-Phe-Arg-Lys, Dnp quencher on lysine ({FITC}-[βAla]FFRK(Dnp); also: attached to PEGA resin particle)",Fluorescence value (changed amount),trypsin [1],8
"Sample 10: PEGA resin particle bearing FITC-β-Ala-Asp-Gly-Arg-Lys, Dnp quencher on lysine ({FITC}-[βAla]DGRK(Dnp); also: attached to PEGA resin particle)",Fluorescence value (changed amount),trypsin [1],57
"Sample 24: PEGA resin particle bearing FITC-β-Ala-Asn-Leu-Asp-Lys, Dnp quencher on lysine ({FITC}-[βAla]NLDK(Dnp); also: attached to PEGA resin particle)",Fluorescence value Elastase (changed amount),elastase,23
same,Fluorescence value Trypsin (changed amount),trypsin [2],5
same,Fluorescence value Subtilisin (changed amount),subtilisin [3],446
